The text below walks through data of patent US9328143B2, “Peptide derivatives and use thereof as carriers for molecules in the form of conjugates” (VECT-HORUS, priority 2008, dated 2016).

The nature of data set [1]: In situ brain perfusion in mouse, transport across the BBB. It is filed as in vivo. The settings on record: mouse, in vivo. The method, then: The in situ brain perfusion technique (in adult male OF1 mouse) is used here to select the best vectors and to provide proof of their mechanism of action for their passage in the brain across the BBB.
Radioactive peptides with high specific radioactivity (SRA, up to 100 Ci/mmol) are prepared by a strategy of acylation of the N-term amine function by tritiated propionic (or propanoic) anhydride or tritiated N-propionyl-succinimide (NPS).
The tritiation reaction of peptide vectors SEQ ID NO: 11 and SEQ ID NO: 48 in the N-term position by propionylation is carried out in DMF (1 mg peptide in 100 μl to 450 μl according to solubility) by adding 0.1 equivalent of tritiated NPS for 5 min at room temperature, then 0.9 equivalent of cold NPS (non-tritiated) for 1 h, and then a new equivalent of cold NPS for 5 h. The reaction medium is then left at 4° C. overnight and purified the following day by HPLC. The SRA for each tritiated peptide is between 5 Ci/mmol and 10 Ci/mmol (theoretically on the order of 7.7 Ci/mmol). The total quantity of radioactivity prepared by synthesis is between 600 μCi and 950 μCi.
The techniques briefly summarised below were developed to study the distribution in the brain of active substances and, in particular, the role of the BBB and, more particularly, of LDLR in the penetration of these molecules in the brain. In situ brain perfusion techniques are among the most technically demanding and the most difficult to perform in the mouse. However, in situ brain perfusion (like in vitro models) enables total control of the composition of the artificial perfusate in order to maintain the cells and vascularisation of the brain under normal physiological and anatomical conditions within the animal, without the disrupting factor of systemic distribution.
(§1) This strategy of in situ brain perfusion normally carried out in the rat was adapted for mouse (Dagenais et al., 2000, J Cereb Blood Flow Metab., 20(2), 381-6) in order to broaden its application for evaluating the parameters of transport kinetics at the BBB and the blood-retinal barrier, in transgenic and KO mutant mice for the receptors, enzymes or transporters of active substances. It involves catheterisation of a carotid artery in anaesthetised OF 1 mice and ligature of some branches of this carotid artery (external, thyroidal, occipital) in order to specifically perfuse the internal carotid and pterygopalatine arteries, which are used to evaluate the uptake in the brain of the vectors and conjugates. The catheter makes it possible to replace general circulation by infusion with a well-controlled perfusate (bicarbonate buffer, plasma or blood) by passing by the carotid. Oxygenated Krebs bicarbonate buffer is first used to evaluate the capacities of the vectors and conjugates to gain access to the brain. After catheterisation of the carotid, endogenous blood flow is stopped by sectioning the ventricles of the heart in order to avoid the mixture of buffer with blood and elevation in blood pressure. The duration of the fixed flow-rate perfusion is monitored. The buffer perfusion can be extended up to 20 min, or up to 1 h in the presence of oxygen transporters (washed erythrocytes) for studies of receptor-mediated transport (RMT).
The study of peptide vector SEQ ID NO: 11 made it possible to determine its brain transport or transfer coefficient (Kin). The duration of brain perfusion for these experiments is 5 min with a perfusate flow rate of 2 ml/min. Thus, the calculation of the Kin (volume of distribution over time of brain perfusion) of peptide vector SEQ ID NO: 11 gives a value of 3.5±0.2×10^−4 ml/s/g.

Data set [2] in a line: In situ perfusion in mouse, transport across the blood-retinal barrier. It is filed as in vivo. The settings on record: mouse, in vivo.
Source text: as §1
In addition, the Kin of these various peptides, across the blood-retinal barrier (BRB), were also determined. Kin of SEQ ID NO: 11=1.2±0.2×10^−4 ml/s/g Kin of SEQ ID NO: 48=2.4±0.3×10^−4 ml/s/g Kin of SEQ ID NO: 73=0.0±0.0×10^−4 ml/s/g Kin of SEQ ID NO: 72=11.5±3.3×10^−4 ml/s/g Kin of SEQ ID NO: 74=1.8±0.2×10^−4 ml/s/g

The target of data set [3] is T1, hLDLR (Homo sapiens, UniProt P01130). Put plainly: Displacement of SEQ ID NO: 11/S-Tag on CHO-hLDLR-RFP cells (FRET). It is filed as binding. Details: expressed in transfected cells. The settings on record: 10 μM peptide vs 10 μM SEQ ID NO: 11/S-Tag. The method, then:
For the FRET approaches, cells are washed twice with 2 ml PBS and then incubated for 1 h at 37° C. with 250 μl peptide solution. They are again washed twice with 2 ml PBS and then twice with 1 ml PBS, and then scraped in 1 ml PBS and centrifuged for 5 min at 1,250 rpm. The supernatant is then aspirated and the cell pellet is lysed in 80 μl PBS+0.1% Triton X100. Twenty μl of each cell lysate are analysed by measuring fluorescence emission after the FRET reaction.
A study of the structure/activity (affinity) relationships was carried out on peptide vector SEQ ID NO: 11 via the alanine scanning (Ala-scan) technique and by N- and C-term truncation in order to determine the importance of each of the 15 constitutive amino acids of this peptide. […] Briefly, the CHO-hLDLR-RFP cells used are adherent and at confluence.
They are grown in six-well plates. Three wells of cells are used per condition.
A solution containing 10 μM peptide SEQ ID NO: 11/S-Tag is prepared in HamF12-1% BSA culture medium. To this solution is added 10 μM peptide resulting from the Ala-scan to be evaluated (competition). […]

The target in data set [4] is T1, hLDLR. The data set is described as follows: FACS: binding of bacterial viruses expressing peptides to CHO-hLDLR-GFP cells. Details: expressed in transfected cells. Conditions: peptide expressed by bacterial virus clone, vs control bacterial viruses, 20 min at 4° C. The method, then:
Evaluation by FACS of the interaction between CHO-hLDLR-GFP cells and a clone of bacterial viruses expressing peptide SEQ ID NO: 11 with affinity for hLDLR compared with control bacterial viruses not expressing peptides with affinity for this receptor.
(§2) Qualitative immunocytochemistry was supplemented with quantitative flow cytometry (FACS) with suspended cells (GFP cell line, CHO-hLDLR-GFP cell line, human fibroblasts, HUVEC). These cells were grown in culture medium, mechanically unbound and dissociated (without trypsin), centrifuged, resuspended and incubated in the presence of various bacterial virus clones and anti-LDLR antibody, for 20 min at 4° C. in order to avoid any process of endocytosis. After washings, the bacterial viruses bound to cells were visualised with anti-viral envelope protein antibody. FACS analyses were carried out with a FACSCanto system (Becton Dickinson) using BD FACSDiva software. The number of positive cells was standardised with 5,000 events for each test. The results were expressed in arbitrary units of fluorescence.
(§3) FIGS. 9, 10, 11 correspond to the results obtained for peptides SEQ ID NO: 11, SEQ ID NO: 12 and SEQ ID NO: 21 on cells of the CHO-hLDLR-GFP cell line (FIG. 9), human fibroblasts (FIG. 10) and HUVEC (FIG. 11).

In data set [5] the target is T1, hLDLR. The data set is described as follows: FACS: binding of bacterial viruses expressing peptides to HUVEC. Details: endogenous in cells; host or cells: HUVEC (human umbilical vein endothelial cells), not genetically modified. The method, then: Evaluation by FACS of the interaction between HUVEC and two clones of bacterial viruses expressing peptides, one cyclic (SEQ ID NO: 11), the other linear (SEQ ID NO: 21), with affinity for hLDLR, compared with control bacterial viruses not expressing peptides with affinity for this receptor.
as §2, §3
For orientation: Flow cytometry measures light scatter and fluorescence of single cells or particles in a stream.

Data set [6] addresses T1, hLDLR. Put plainly: FACS on HUVEC: competition between peptides expressed by bacterial viruses and natural ligand LDL. It is filed as binding. Details: endogenous in cells; host or cells: HUVEC (human umbilical vein endothelial cells), not genetically modified. The source says: Evaluation by FACS on HUVEC of competition between the peptides expressed by the bacterial viruses with affinity for LDLR and its natural ligand LDL.
I—Graph representing the percentage of shift of the fluorescence signal in zone Q2 of graphs A-H obtained by FACS. […] Adding LDL leads to an 85% loss of signal in Q2 in […], indicating competition between the bacterial virus corresponding to peptide sequence SEQ ID NO: 21 and LDL at the site where LDL binds to hLDLR. The equally strong signal in Q2 of the bacterial viruses that express peptide SEQ ID NO: 11 (shift greater than 70% compared to control bacterial viruses) is only slightly shifted (17%) by adding LDL.
First, it is shown that the binding rate of bacterial viruses expressing peptides with affinity for hLDLR (SEQ ID NO: 21 and SEQ ID NO: 11 are used here as examples) is proportional to the level of LDLR expression by HUVEC. FACS experiments carried out in the presence of LDL made it possible to show and quantify a strong shift (85%) of LDL by linear peptides (for example SEQ ID NO: 21), but a small shift (17%) by cyclic peptides (for example SEQ ID NO: 11).

Data set [7] deals with mouse brain vessel endothelial cells. The data set is described as follows: Tail vein injection of bacterial viruses in C57BL6 mice, immunostaining of brain sections. It is filed as in vivo. The settings on record: 15 min and 2 h post injection, peptide expressed by bacterial viruses. The method, then: Double immunofluorescent staining of frozen sections of C57BL6 mouse brain, 2 h after mouse tail vein injection of control bacterial viruses (A-B) and bacterial viruses expressing a peptide (SEQ ID NO: 1) with affinity for hLDLR and mLDLR (C-D). Brain vessels are stained with anti-mouse IgG, in green (A-C); bacterial viruses are stained with anti-viral envelope protein antibody, in red (B-D).
Bacterial viruses expressing peptides with affinity for hLDLR (SEQ ID NO: 1 is described here for example) and control bacterial viruses (not expressing peptide with affinity for hLDLR) were injected into the tail veins of C57BL6 mice anaesthetised with halothane. After 15 min and 2 h post injection, the mice were sacrificed and perfused with 0.9% NaCl. Brains, livers and kidneys were frozen in isopentane and frozen sections were prepared for double immunohistochemical staining to visualise blood vessels with anti-mouse IgG and anti-viral envelope protein antibody to visualise bacterial viruses bound to endothelial cells in vivo.

For data set [8], the target named is T1, hLDLR. Put plainly: Immunocytochemistry: bacterial viruses on CHO-GFP (control) and CHO-hLDLR-GFP cell lines. It is filed as binding. Details: expressed in transfected cells. Conditions: CHO cell line expressing GFP alone; peptide expressed by bacterial virus clone. The source says:
CHO cell lines stably expressing A—GFP alone (green), and B—hLDLR-GFP (green), and immunostaining with an anti-viral envelope protein antibody of a clone of bacterial viruses expressing a peptide (SEQ ID NO: 1) with affinity for hLDLR (red dots). Cell nuclei are stained with Hoechst (blue, A1 and B1). GFP fluorescence is visible in green (A2 and B2), that of the staining of the viral envelope of the bacterial virus by the viral anti-protein antibody is visible in red (A3 and B3) and the superimposing of red and green stains is visible in yellow/orange (A4 and B4).
The bacterial virus clones identified following the binding of the peptides, which they express and which bind to hLDLR-GFP expressed by the stable CHO-hLDLR-GFP cell line, were brought together with LDLR cells and, after intensive washing, were detected with an antibody directed against the viral envelope protein of the bacterial virus followed by a second antibody coupled with Alexa 594 (FIG. 7).

Data set [9] deals with T1, hLDLR. Put plainly: FACS: binding of bacterial viruses expressing peptides to human fibroblasts. Details: endogenous in cells; host or cells: HUVEC (human umbilical vein endothelial cells), not genetically modified. The settings on record: peptide expressed by bacterial virus clone, vs control bacterial viruses. The method, then:
Evaluation by FACS of the interaction between human fibroblasts and a clone of bacterial viruses expressing peptide SEQ ID NO: 12 with affinity for hLDLR, compared with control bacterial viruses not expressing peptides with affinity for this receptor.
as §2, §3

The conditions of data set [10]: Pan et al., 2004; cited from earlier work.
The conditions of data set [11]: Demeule et al., 2008; cited from earlier work.

Read-outs that look alike come from different tables or passages of the source.

T1 sequence (P01130 22-860): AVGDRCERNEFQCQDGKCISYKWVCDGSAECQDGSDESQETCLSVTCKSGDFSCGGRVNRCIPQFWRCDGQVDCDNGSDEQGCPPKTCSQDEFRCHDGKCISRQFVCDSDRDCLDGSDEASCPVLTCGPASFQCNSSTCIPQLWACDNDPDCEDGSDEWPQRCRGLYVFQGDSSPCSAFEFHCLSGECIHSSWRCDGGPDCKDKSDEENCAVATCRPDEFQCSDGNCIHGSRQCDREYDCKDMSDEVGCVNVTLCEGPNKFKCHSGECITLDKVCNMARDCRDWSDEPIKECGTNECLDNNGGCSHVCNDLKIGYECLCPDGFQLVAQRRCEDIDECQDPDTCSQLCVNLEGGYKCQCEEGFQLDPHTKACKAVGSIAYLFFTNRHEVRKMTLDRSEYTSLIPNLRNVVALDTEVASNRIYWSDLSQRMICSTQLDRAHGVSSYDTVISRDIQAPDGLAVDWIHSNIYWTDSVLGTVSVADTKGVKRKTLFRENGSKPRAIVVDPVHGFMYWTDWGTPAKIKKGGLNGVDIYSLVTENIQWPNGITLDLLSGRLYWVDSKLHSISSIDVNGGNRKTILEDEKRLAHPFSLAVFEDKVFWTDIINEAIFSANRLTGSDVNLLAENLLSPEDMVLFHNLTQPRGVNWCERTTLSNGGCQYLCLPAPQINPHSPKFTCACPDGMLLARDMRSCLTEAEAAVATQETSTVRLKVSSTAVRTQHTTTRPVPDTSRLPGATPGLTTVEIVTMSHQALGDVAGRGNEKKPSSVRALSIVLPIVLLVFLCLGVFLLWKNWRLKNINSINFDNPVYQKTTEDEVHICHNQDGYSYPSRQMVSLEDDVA

Take (D)-CMPRLRGC [SEQ ID NO: 48]: in [1], the “Kin (brain transport or transfer coefficient)” value is listed as 4.8±0.4 ×10^−4 ml/s/g and the “improvement of passage in the brain, factor vs SEQ ID NO: 11” value worked out at 1.37. Also, the “Kin across the blood-retinal barrier (BRB)” value in data set [2] was 2.4±0.3 ×10^−4 ml/s/g. Also, the “in vitro affinity for LDLR (displacement of SEQ ID NO: 11/S-Tag)” value in data set [3] is listed as “excellent affinity”.

For the substance DSGLCMPRLRGCDPR [SEQ ID NO: 11], in [1], the “Kin (brain transport or transfer coefficient)” value is 3.5±0.2 ×10^−4 ml/s/g. Also, in data set [2], the “Kin across the blood-retinal barrier (BRB)” value is 1.2±0.2 ×10^−4 ml/s/g. In addition, the “shift of the signal in Q2 (FACS)” value in data set [4] is “significant shift”; in data set [5] (peptide expressed by bacterial virus clone, vs control bacterial viruses), “significant shift”. For the same substance, the “percentage of shift of the fluorescence signal in zone Q2” value in data set [5] (peptide expressed by bacterial viruses, without LDL) is “greater than 70%”. For the same substance, the “effect of LDL on binding of peptides expressed by bacterial viruses” value in data set [6] (FACS, LDL added) is “No effect”. Also, the “loss/shift of signal in Q2 on adding LDL” value in [6] (peptide expressed by bacterial viruses, in the presence of LDL) is on record as 17%.

As to HLDCMPRGCFRN [SEQ ID NO: 1], the “binding to brain vessel wall endothelial cells in vivo” value in [7] was “bind to vessel wall endothelial cells”. For the same substance, the “binding of bacterial viruses to cells that do not express hLDLR” value in data set [8] was “do not bind”.

Turning to MTVMPTGLWNPLIPS [SEQ ID NO: 12], in [9], the “shift of the signal in Q2 (FACS)” value is recorded as “significant shift”.

With “RAP protein: RAP protein; literature Kin value”, the Kin in [10] was 1e-05 mL/s/g.

For “transferrin: transferrin, ligand of TfR; literature Kin value”, the Kin in data set [11] is 0.0003 mL/s/g.
